Results published in PubChem BioAssay AID1963965 (Molecular Pharmacology Branch, DTP, NCI, 2024).

Tested on: 996289-038-R-J1-PDC spheroid viability
Assay: Anticancer human tumor 996289-038-R-J1-PDC patient-derived colon adenocarcinoma cell line growth inhibition [PI3K]
Settings: spheroids with HUVEC and MSC; for IC50: curve of first compound; for viability, T/C: stronger effect = lower value; active means viability on the fitted dose curve at most 10% of control; inactive means the rest
Procedure, shortened: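 Multi-cell spheroids combine tumor cells with HUVEC and human MSCs, treated with targeted agents alone or with inavolisib, alpelisib, duvelisib or copanlisib. Concentrations fall in half-log steps from at or near clinical Cmax, or from 10 microM where Cmax is unknown; viability read-out.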

[1] = second compound 0.00316 µM, first compound 0.0316 µM
[2] = second compound 0.00316 µM, first compound 0.1 µM
[3] = second compound 0.01 µM, first compound 0.0316 µM
[4] = second compound 0.01 µM, first compound 0.1 µM
[5] = second compound 0.0316 µM, first compound 0.0316 µM
[6] = second compound 0.0316 µM, first compound 0.1 µM
[7] = second compound 0.1 µM, first compound 0.0316 µM
[8] = second compound 0.1 µM, first compound 0.1 µM
[9] = second compound 0.316 µM, first compound 0.0316 µM
[10] = second compound 0.316 µM, first compound 0.1 µM
[11] = second compound 1 µM, first compound 0.0316 µM
[12] = second compound 1 µM, first compound 0.1 µM
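Further: spheroids exposed to compounds for seven days before viability read.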
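Wherever viability, T/C is given: luminescence used as a proxy for viable cell amount; percent viability relative to DMSO vehicle control as 100%.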

CC(=O)c1c(C)c2cnc(Nc3ccc(N4CCNCC4)cn3)nc2n(C2CCCC2)c1=O + COc1c(OCCCN2CCOCC2)ccc2c3n(c(=NC(=O)c4cnc(N)nc4)nc12)CCN3
< 0.316 nM: IC50 (second compound 0.316 µM) | IC50 (second compound 1 µM)
> 100 nM: IC50 (second compound 0.00316 µM) | IC50 (second compound 0.01 µM) | IC50 (second compound 0.0316 µM) | IC50 (second compound 0.1 µM)
inactive: viability, T/C (second compound 0.00316 µM, first compound 0.000316 µM) 99.3% | viability, T/C (second compound 0.00316 µM, first compound 0.001 µM) 96.9% | viability, T/C (second compound 0.00316 µM, first compound 0.00316 µM) 104% | viability, T/C (second compound 0.00316 µM, first compound 0.01 µM) 94.2% | viability, T/C [1] 97.4% | viability, T/C [2] 83.1% | viability, T/C (second compound 0.01 µM, first compound 0.000316 µM) 89.1% | viability, T/C (second compound 0.01 µM, first compound 0.001 µM) 89.9% | viability, T/C (second compound 0.01 µM, first compound 0.00316 µM) 80.2% | viability, T/C (second compound 0.01 µM, first compound 0.01 µM) 90.8% | viability, T/C [3] 94.2% | viability, T/C [4] 73% | viability, T/C (second compound 0.0316 µM, first compound 0.000316 µM) 66.1% | viability, T/C (second compound 0.0316 µM, first compound 0.001 µM) 81.4% | viability, T/C (second compound 0.0316 µM, first compound 0.00316 µM) 80.5% | viability, T/C (second compound 0.0316 µM, first compound 0.01 µM) 81.8% | viability, T/C [5] 73.7% | viability, T/C [6] 70.6% | viability, T/C (second compound 0.1 µM, first compound 0.000316 µM) 62.7% | viability, T/C (second compound 0.1 µM, first compound 0.001 µM) 56% | viability, T/C (second compound 0.1 µM, first compound 0.00316 µM) 59.4% | viability, T/C (second compound 0.1 µM, first compound 0.01 µM) 55% | viability, T/C [7] 57.5% | viability, T/C [8] 49.8% | viability, T/C (second compound 0.316 µM, first compound 0.000316 µM) 34.4% | viability, T/C (second compound 0.316 µM, first compound 0.001 µM) 31.6% | viability, T/C (second compound 0.316 µM, first compound 0.00316 µM) 39.1% | viability, T/C (second compound 0.316 µM, first compound 0.01 µM) 31.3% | viability, T/C [9] 37.8% | viability, T/C [10] 29.4% | viability, T/C (second compound 1 µM, first compound 0.000316 µM) 19.1% | viability, T/C (second compound 1 µM, first compound 0.001 µM) 22% | viability, T/C (second compound 1 µM, first compound 0.00316 µM) 21.5% | viability, T/C (second compound 1 µM, first compound 0.01 µM) 16.6% | viability, T/C [11] 17.7% | viability, T/C [12] 15.9%

CCCS(=O)(=O)Nc1ccc(F)c(C(=O)c2c[nH]c3ncc(-c4ccc(Cl)cc4)cc23)c1F + COc1c(OCCCN2CCOCC2)ccc2c3n(c(=NC(=O)c4cnc(N)nc4)nc12)CCN3
6090 nM: IC50 (second compound 0.01 µM)
active: viability, T/C (second compound 1 µM, first compound 10 µM) 6.42%
< 31.6 nM: IC50 (second compound 0.316 µM) | IC50 (second compound 1 µM)
inactive: viability, T/C [1] 98.9% | viability, T/C [2] 81.6% | viability, T/C (second compound 0.00316 µM, first compound 0.316 µM) 94.6% | viability, T/C (second compound 0.00316 µM, first compound 1 µM) 108% | viability, T/C (second compound 0.00316 µM, first compound 3.16 µM) 87.5% | viability, T/C (second compound 0.00316 µM, first compound 10 µM) 19.9% | viability, T/C [3] 96.4% | viability, T/C [4] 92.6% | viability, T/C (second compound 0.01 µM, first compound 0.316 µM) 87.4% | viability, T/C (second compound 0.01 µM, first compound 1 µM) 85.7% | viability, T/C (second compound 0.01 µM, first compound 3.16 µM) 90.6% | viability, T/C (second compound 0.01 µM, first compound 10 µM) 19.4% | viability, T/C [5] 71% | viability, T/C [6] 78.2% | viability, T/C (second compound 0.0316 µM, first compound 0.316 µM) 72.5% | viability, T/C (second compound 0.0316 µM, first compound 1 µM) 80.2% | viability, T/C (second compound 0.0316 µM, first compound 3.16 µM) 71.1% | viability, T/C (second compound 0.0316 µM, first compound 10 µM) 19.8% | viability, T/C [7] 63.5% | viability, T/C [8] 49.7% | viability, T/C (second compound 0.1 µM, first compound 0.316 µM) 66.9% | viability, T/C (second compound 0.1 µM, first compound 1 µM) 53.4% | viability, T/C (second compound 0.1 µM, first compound 3.16 µM) 44.4% | viability, T/C (second compound 0.1 µM, first compound 10 µM) 12.2% | viability, T/C [9] 32.3% | viability, T/C [10] 42.4% | viability, T/C (second compound 0.316 µM, first compound 0.316 µM) 35.9% | viability, T/C (second compound 0.316 µM, first compound 1 µM) 36.7% | viability, T/C (second compound 0.316 µM, first compound 3.16 µM) 26% | viability, T/C (second compound 0.316 µM, first compound 10 µM) 8.03% | viability, T/C [11] 19.9% | viability, T/C [12] 22.4% | viability, T/C (second compound 1 µM, first compound 0.316 µM) 20.2% | viability, T/C (second compound 1 µM, first compound 1 µM) 15.9% | viability, T/C (second compound 1 µM, first compound 3.16 µM) 14%
5100 nM: IC50 (second compound 0.0316 µM)
6030 nM: IC50 (second compound 0.00316 µM)
1770 nM: IC50 (second compound 0.1 µM)
